# Experimental data as given in US9873883B2, “Glyphosate resistant plants and associated methods” (Dow AgroSciences LLC, priority 2012, dated 2018).
# Legend:
# [1] = target: T1, Glycine max (soybean) EPSP synthase DGT-1 variant DGT-1 v8 (T→I, P→S; TIPS) (Glycine max, UniProt I1J7U9, P187S/T183I); experiment: In vitro kinetic assay (inorganic phosphate production, malachite green); type: biochemical
# T1 sequence (I1J7U9 with tags, fused parts or gaps T183I/P187S): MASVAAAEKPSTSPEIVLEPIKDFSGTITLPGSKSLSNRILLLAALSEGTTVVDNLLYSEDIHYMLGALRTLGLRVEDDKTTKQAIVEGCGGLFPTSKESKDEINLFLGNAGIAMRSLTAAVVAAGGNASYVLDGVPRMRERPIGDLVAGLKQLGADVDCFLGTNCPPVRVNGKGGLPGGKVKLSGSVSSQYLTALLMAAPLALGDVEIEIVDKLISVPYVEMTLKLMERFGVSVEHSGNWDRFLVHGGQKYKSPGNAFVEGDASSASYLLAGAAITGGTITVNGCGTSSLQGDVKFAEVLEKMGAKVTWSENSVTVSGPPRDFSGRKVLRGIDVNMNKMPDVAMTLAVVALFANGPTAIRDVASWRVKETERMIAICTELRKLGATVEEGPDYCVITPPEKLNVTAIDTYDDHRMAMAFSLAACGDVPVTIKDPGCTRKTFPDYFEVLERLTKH
# Text: (§1) The following Class I enzymes: DGT-1 from Glycine max, DGT-3 from Brassica napus (GENBANK ACC NO: P17688), and DGT-7 from Triticum aestivum (GENBANK ACC NO: EU977181) were used as a comparison. The Class I EPSP synthase enzymes and mutant variants thereof were synthesized and evaluated. A mutation introduced into the plant EPSP synthase enzymes consisted of the Glycine to Alanine mutation made within the EPSP synthase enzyme at a similar location as that of the G96A mutation from the E. coli version of the enzyme. In addition, Threonine to Isoleucine and Proline to Serine mutations were introduced within these Class I EPSP synthase enzymes at analogous positions as that of amino acid 97 (T to I) and amino acid 101 (P to S) in the EPSP synthase of E. coli as described in Funke et al., (2009).
# (§2) The location of the amino acid residue which was mutated from glycine to alanine is indicated by the first asterisk. The location of the amino acid residue which was mutated from threonine to isoleucine is indicated by the second asterisk. The location of the third amino acid residue which was mutated from proline to serine is indicated by the third asterisk. These mutations were introduced into different versions of DGT-1, DGT-3, and DGT-7. The different versions of the genes which contain the mutations are described in more detail below.
# (§3) Additional constructs containing the dgt-1, dgt-3 and dgt-7 were synthesized. These constructs were used for in vitro testing of the dgt-1 v5, dgt-1 v6, dgt-1 v7, dgt-1 v8, dgt-3 v6, dgt-3 v7, dgt-3 v8, dgt-7 v5, dgt-7 v6, dgt-7 v7, and dgt-7 v8 gene sequences were outsourced to GeneArt for synthesis and cloning. The synthesized genes were cloned into the pET28 expression vector. The resulting constructions were labeled as pDAB102028 containing dgt-1 v5, pDAB102029 containing dgt-1 v6, pDAB102032 containing dgt-1 v7, pDAB102034 containing dgt-1 v8, pDAB100429 containing dgt-3 v6, pDAB100442 containing dgt-3 v7, pDAB100430 containing dgt-3 v8, pDAB102036 containing dgt-7 v5, pDAB102038 containing dgt-7 v6, pDAB102040 containing dgt-7 v7, and pDAB102042 containing dgt-7 v8.
# (§4) Recombinant DGT proteins were overexpressed in Rosetta2™ (DE3) cells (Novagen, Madison, Wis.) from the constructs described above. A single colony was used to inoculate 50 mL starter cultures of LB containing chloramphenicol (25 μg/mL) and kanamycin (50 μg/mL) which were cultivated overnight at 37° C. The overnight cultures were used to inoculate 1 L of LB containing chloramphenicol (25 μg/mL) and kanamycin (50 μg/mL). The cultures were grown at 37° C. to an O.D.600=0.6 then placed in an ice water bath for 10 minutes. Expression of the target proteins was achieved by addition of IPTG to a final concentration of 500 μM. Induction was allowed to proceed overnight at 20° C. followed by harvesting via centrifugation at 8,000 rpm for 20 minutes. The cell pellets were stored at −80° C. until required for purification. All purification steps were carried out at 4° C.
# (§5) Cell pellets from 1 L cultures were resuspended in 20-30 mL Buffer A (50 mM HEPES pH 7.5, 150 mM KCl, 2 mM DTT, 1 mM EDTA, 20 mM imidazole, and 5% glycerol). COMPLETE™ protease inhibitor cocktail (1 tablet/50 mL, Roche, Indianapolis, Ind.) and lysozyme (1 mg/mL, Sigma-Aldrich, St. Louis, Mo.) were then added and the suspension was stirred for 20 minutes. Cell lysis was performed using a Branson Sonifier 250 (3×60 second bursts) followed by removal of the cell debris by centrifugation at 16,000 rpm for 45 minutes. DGT enzymes were purified to homogeneity in one step via immobilized metal affinity chromatography (IMAC) using a 5 mL HisTrap FF crude column. The column was equilibrated in Buffer A and the sample was loaded in the same buffer. The column was then washed with 10 column volumes of Buffer A followed by elution in a 0-100% Buffer B (50 mM HEPES pH 7.5, 200 mM KCl, 2 mM DTT, 1 mM EDTA, 500 mM imidazole, and 5% glycerol) linear gradient over 25 column volumes. […]
# [2] = target: T2, Triticum aestivum (wheat) EPSP synthase DGT-7 variant DGT-7 v8 (T→I, P→S; TIPS) (Triticum aestivum, UniProt B5M6A1, P172S/T168I); experiment: as above; type: biochemical
# T2 construct: TIPS double mutant
# T2 sequence (B5M6A1 with tags, fused parts or gaps T168I/P172S): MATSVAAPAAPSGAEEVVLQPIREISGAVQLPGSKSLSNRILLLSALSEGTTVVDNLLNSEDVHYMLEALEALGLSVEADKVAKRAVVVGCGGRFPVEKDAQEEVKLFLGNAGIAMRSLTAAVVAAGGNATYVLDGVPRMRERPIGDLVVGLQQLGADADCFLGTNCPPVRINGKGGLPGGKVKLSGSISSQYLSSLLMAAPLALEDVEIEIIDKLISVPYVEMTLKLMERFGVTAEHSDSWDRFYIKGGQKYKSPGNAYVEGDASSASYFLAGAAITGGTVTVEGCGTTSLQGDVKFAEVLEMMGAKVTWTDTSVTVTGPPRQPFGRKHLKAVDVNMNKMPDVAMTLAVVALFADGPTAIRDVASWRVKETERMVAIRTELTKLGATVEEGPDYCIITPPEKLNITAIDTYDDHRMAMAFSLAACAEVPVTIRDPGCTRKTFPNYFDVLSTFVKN
# Text: as §1, §2, §3, §4, §5
# [3] = IC50 (glyphosate), at 60 μM PEP
# [4] = tolerance to glyphosate, PEP concentration not given
SMILES,"IC50 [1, 3] [mM]","IC50 ([1]; IC50 (glyphosate), at 1 mM PEP) [mM]","IC50 [1, 4] [mM]","IC50 [2, 3] [mM]","IC50 ([2]; IC50 (glyphosate), at 1 mM PEP, values greater than 50 are estimates) [mM]","IC50 [2, 4] [mM]","kcat/Km ([1]; PEP, pH 7.5, 1 mM S3P) [M⁻¹ s⁻¹]","kcat/Km ([2]; PEP, pH 7.5, 1 mM S3P) [M⁻¹ s⁻¹]","Km ([2]; read-out: Km for PEP, pH 7.5, 1 mM S3P) [µM]"
"O=C(O)CNCP(=O)(O)O [glyphosate, N-(phosphonomethyl)glycine]",5.9,13.3,3 to 6,3.6,> 80,3 to 6,–,–,–
"C=C(OP(=O)(O)O)C(=O)O [PEP, phosphoenolpyruvate]",–,–,–,–,–,–,12300,13600,60 to 200
